Assay results: ChEMBL document CHEMBL1649138, “In vitro activity of Isavuconazole against Aspergillus species and zygomycetes according to the methodology of the European Committee on Antimicrobial Susceptibility Testing” (Antimicrob Agents Chemother, 2009)
In brackets after ≈: the same amount, converted by molar mass.

Tests used:
Aspergillus terreus [1] = assay: Antifungal activity against amphotericin B-resistant Aspergillus terreus by EUCAST method; type: functional
Aspergillus niger [2] = assay: Antifungal activity against Aspergillus niger hyphae by EUCAST method; type: functional
Aspergillus fumigatus [3] = assay: Antifungal activity against Aspergillus fumigatus by broth microdilution method; type: functional
Rhizopus [4] = assay: Fungicidal activity against Rhizopus; type: functional
Cunninghamella [5] = assay: Fungicidal activity against Cunninghamella; type: functional
Aspergillus niger [6] = assay: Antifungal activity against Aspergillus niger by EUCAST method; type: functional
Rhizopus [7] = assay: Antifungal activity against Rhizopus by EUCAST method; type: functional
Aspergillus fumigatus [8] = assay: Fungicidal activity against Aspergillus fumigatus; type: functional
Aspergillus flavus [9] = assay: Antifungal activity against Aspergillus flavus by broth microdilution method; type: functional
Aspergillus terreus [10] = assay: Fungicidal activity against amphotericin B-resistant Aspergillus terreus; type: functional
Aspergillus niger [11] = assay: Antifungal activity against Aspergillus niger by broth microdilution method; type: functional
Absidia [12] = assay: Antifungal activity against Absidia hyphae by EUCAST method; type: functional
Absidia [13] = assay: Antifungal activity against Absidia by EUCAST method; type: functional
Aspergillus fumigatus [14] = assay: Antifungal activity against Aspergillus fumigatus by EUCAST method; type: functional
Mucor [15] = assay: Fungicidal activity against Mucor; type: functional
Aspergillus terreus [16] = assay: Antifungal activity against amphotericin B-resistant Aspergillus terreus hyphae by EUCAST method; type: functional
Aspergillus niger [17] = assay: Fungicidal activity against Aspergillus niger; type: functional
Aspergillus fumigatus [18] = assay: Antifungal activity against Aspergillus fumigatus hyphae by EUCAST method; type: functional
Cunninghamella [19] = assay: Antifungal activity against Cunninghamella hyphae by EUCAST method; type: functional
Aspergillus flavus [20] = assay: Antifungal activity against Aspergillus flavus hyphae by EUCAST method; type: functional
Rhizopus [21] = assay: Antifungal activity against Rhizopus hyphae by EUCAST method; type: functional
Rhizomucor [22] = assay: Antifungal activity against Rhizomucor by EUCAST method; type: functional
Rhizomucor [23] = assay: Antifungal activity against Rhizomucor hyphae by EUCAST method; type: functional
Plasma = assay: Plasma concentration in human; type: ADME, cell-free
Mucor [24] = assay: Antifungal activity against Mucor hyphae by EUCAST method; type: functional
Aspergillus terreus [25] = assay: Antifungal activity against amphotericin B-resistant Aspergillus terreus by broth microdilution method; type: functional
Mucor [26] = assay: Antifungal activity against Mucor by EUCAST method; type: functional
Absidia [27] = assay: Fungicidal activity against Absidia; type: functional
Cunninghamella [28] = assay: Antifungal activity against Cunninghamella by EUCAST method; type: functional
Aspergillus flavus [29] = assay: Fungicidal activity against Aspergillus flavus; type: functional
Aspergillus flavus [30] = assay: Antifungal activity against Aspergillus flavus by EUCAST method; type: functional
Rhizomucor [31] = assay: Fungicidal activity against Rhizomucor; type: functional

For `C[C@@H](c1nc(-c2ccc(C#N)cc2)cs1)[C@](O)(Cn1cncn1)c1cc(F)ccc1F` [ISAVUCONAZOLE], the MIC50 (Aspergillus terreus [1]) was 0.5 µg/mL (≈ 1.14 µM), the MIC90 (Aspergillus terreus [1]) was 2 µg/mL (≈ 4.57 µM) and the MIC90 (Aspergillus niger [2]) was 8 µg/mL (≈ 18.3 µM). It also gave an MIC (Aspergillus fumigatus [3]) of 0.63 µg/mL (≈ 1.44 µM), an MIC90 (Rhizopus [4]) of over 8 µg/mL and an MIC90 (Cunninghamella [5]) of over 8 µg/mL. It also gave an MIC50 (Aspergillus niger [6]) of 2 µg/mL (≈ 4.57 µM), an MIC90 (Aspergillus niger [6]) of 4 µg/mL (≈ 9.14 µM) and an MIC50 (Rhizopus [7]) of 4 µg/mL (≈ 9.14 µM). It also gave an MIC90 (Rhizopus [7]) of over 8 µg/mL, an MIC (Aspergillus fumigatus [8]) of 1 µg/mL (≈ 2.29 µM) and an MIC90 (Aspergillus fumigatus [8]) of 1 µg/mL (≈ 2.29 µM). The MIC (Aspergillus flavus [9]) was 0.76 µg/mL (≈ 1.74 µM), the MIC90 (Aspergillus terreus [10]) was 2 µg/mL (≈ 4.57 µM) and the MIC (Aspergillus niger [11]) was 2.36 µg/mL (≈ 5.39 µM). For the same compound, the MIC90 (Absidia [12]) was over 8 µg/mL, the MIC50 (Absidia [13]) was 4 µg/mL (≈ 9.14 µM) and the MIC90 (Absidia [13]) was over 8 µg/mL. For the same compound, the MIC50 (Aspergillus fumigatus [14]) was 1 µg/mL (≈ 2.29 µM), the MIC90 (Aspergillus fumigatus [14]) was 1 µg/mL (≈ 2.29 µM) and the MIC90 (Mucor [15]) was over 8 µg/mL. For the same compound, the MIC90 (Aspergillus terreus [16]) was 2 µg/mL (≈ 4.57 µM), the MIC90 (Aspergillus niger [17]) was over 8 µg/mL and the MIC90 (Aspergillus fumigatus [18]) was 1 µg/mL (≈ 2.29 µM). For the same compound, the MIC90 (Cunninghamella [19]) was over 8 µg/mL, the MIC90 (Aspergillus flavus [20]) was 2 µg/mL (≈ 4.57 µM) and the MIC90 (Rhizopus [21]) was over 8 µg/mL. It also gave an MIC50 (Rhizomucor [22]) of over 8 µg/mL, an MIC90 (Rhizomucor [22]) of over 8 µg/mL and an MIC90 (Rhizomucor [23]) of over 8 µg/mL. It also gave a Cp (Plasma) of over 1700 ng/mL, an MIC90 (Mucor [24]) of over 8 µg/mL and an MIC (Aspergillus terreus [25]) of 0.68 µg/mL (≈ 1.55 µM). The MIC50 (Mucor [26]) was over 8 µg/mL, the MIC90 (Mucor [26]) was over 8 µg/mL and the MIC90 (Absidia [27]) was over 8 µg/mL. It also gave an MIC50 (Cunninghamella [28]) of 4 µg/mL (≈ 9.14 µM), an MIC90 (Cunninghamella [28]) of over 8 µg/mL and an MIC90 (Aspergillus flavus [29]) of 2 µg/mL (≈ 4.57 µM). The MIC50 (Aspergillus flavus [30]) was 1 µg/mL (≈ 2.29 µM), the MIC90 (Aspergillus flavus [30]) was 2 µg/mL (≈ 4.57 µM) and the MIC90 (Rhizomucor [31]) was over 8 µg/mL.
